We go through 48 compounds from patent publication US12421225B2, “Heteroaromatic amide derivative and medicament containing the same” (KAKEN PHARMACEUTICAL CO., LTD., priority 2018, dated 2025).

Chain of human Nav1.7 (Q15858 whole entry): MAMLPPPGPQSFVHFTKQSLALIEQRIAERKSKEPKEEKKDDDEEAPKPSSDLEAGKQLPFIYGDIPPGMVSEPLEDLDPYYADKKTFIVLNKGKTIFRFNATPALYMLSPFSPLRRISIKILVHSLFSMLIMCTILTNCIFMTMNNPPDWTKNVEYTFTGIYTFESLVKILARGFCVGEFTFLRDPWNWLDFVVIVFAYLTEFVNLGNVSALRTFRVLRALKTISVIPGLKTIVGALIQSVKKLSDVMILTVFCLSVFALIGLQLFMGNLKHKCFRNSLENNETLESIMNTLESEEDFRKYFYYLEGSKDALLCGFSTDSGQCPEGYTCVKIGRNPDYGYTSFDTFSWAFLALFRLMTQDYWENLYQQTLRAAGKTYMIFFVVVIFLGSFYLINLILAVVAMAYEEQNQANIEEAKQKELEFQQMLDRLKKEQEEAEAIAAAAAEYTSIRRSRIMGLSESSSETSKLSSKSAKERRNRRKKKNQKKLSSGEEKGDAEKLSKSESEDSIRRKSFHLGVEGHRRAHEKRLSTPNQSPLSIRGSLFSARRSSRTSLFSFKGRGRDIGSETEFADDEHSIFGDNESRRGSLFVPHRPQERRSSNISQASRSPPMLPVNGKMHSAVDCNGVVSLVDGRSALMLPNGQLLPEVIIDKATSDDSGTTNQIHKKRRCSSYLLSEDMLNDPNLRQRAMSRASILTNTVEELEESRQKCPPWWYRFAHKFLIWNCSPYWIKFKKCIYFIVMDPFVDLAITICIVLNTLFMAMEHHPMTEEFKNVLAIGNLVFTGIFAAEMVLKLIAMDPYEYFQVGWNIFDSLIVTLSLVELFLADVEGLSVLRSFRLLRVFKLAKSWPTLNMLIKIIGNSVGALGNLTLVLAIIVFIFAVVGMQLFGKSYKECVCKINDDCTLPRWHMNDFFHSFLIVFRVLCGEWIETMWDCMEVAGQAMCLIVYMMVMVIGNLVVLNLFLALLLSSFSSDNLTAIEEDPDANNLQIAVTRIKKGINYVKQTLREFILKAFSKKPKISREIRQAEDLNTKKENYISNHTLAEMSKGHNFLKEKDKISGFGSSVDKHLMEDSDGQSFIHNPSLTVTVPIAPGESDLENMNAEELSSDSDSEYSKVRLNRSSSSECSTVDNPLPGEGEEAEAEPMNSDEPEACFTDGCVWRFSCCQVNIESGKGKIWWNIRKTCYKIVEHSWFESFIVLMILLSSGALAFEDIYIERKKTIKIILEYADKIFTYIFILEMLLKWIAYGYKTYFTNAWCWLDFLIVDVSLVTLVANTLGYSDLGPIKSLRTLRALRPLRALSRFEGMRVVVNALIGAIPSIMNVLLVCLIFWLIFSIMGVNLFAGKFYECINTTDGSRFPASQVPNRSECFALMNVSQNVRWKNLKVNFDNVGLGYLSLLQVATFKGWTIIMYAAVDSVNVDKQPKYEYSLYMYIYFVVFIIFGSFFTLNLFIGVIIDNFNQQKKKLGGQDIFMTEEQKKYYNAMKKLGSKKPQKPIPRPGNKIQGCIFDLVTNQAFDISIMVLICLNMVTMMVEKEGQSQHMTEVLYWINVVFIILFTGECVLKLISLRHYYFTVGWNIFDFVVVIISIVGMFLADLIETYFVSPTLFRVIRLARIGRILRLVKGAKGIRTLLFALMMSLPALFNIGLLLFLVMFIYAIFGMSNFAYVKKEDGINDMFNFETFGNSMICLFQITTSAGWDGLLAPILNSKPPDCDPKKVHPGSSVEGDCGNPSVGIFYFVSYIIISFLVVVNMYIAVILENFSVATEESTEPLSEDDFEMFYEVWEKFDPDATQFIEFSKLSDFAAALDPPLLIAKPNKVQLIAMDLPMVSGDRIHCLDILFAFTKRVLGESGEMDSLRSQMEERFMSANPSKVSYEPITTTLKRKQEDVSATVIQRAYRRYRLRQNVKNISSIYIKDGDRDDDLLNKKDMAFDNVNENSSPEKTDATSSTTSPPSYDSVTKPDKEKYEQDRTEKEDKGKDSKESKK
Chain of human Nav1.7 (Q07699 19-218 partner): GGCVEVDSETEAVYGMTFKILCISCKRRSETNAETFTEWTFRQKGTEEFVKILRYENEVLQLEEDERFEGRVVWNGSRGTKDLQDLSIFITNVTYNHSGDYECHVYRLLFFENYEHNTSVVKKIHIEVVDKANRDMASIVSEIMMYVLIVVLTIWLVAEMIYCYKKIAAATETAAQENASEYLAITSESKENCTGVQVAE

The first assay deals with human Nav1.7 (Homo sapiens (Human), UniProt Q15858). The experiment in a line: Human Nav1.7 inhibitory activity evaluation (automated patch clamp QPatch16X, HEK293A cells stably expressing human Nav1.7 and human Navβ1). It is filed as cell-based. As to conditions: HEK293A cells stably expressing human Nav1.7 and human Navβ1, automated patch clamp QPatch16X. The procedure:
Test Example 1: Human Nav1.7 Inhibitory Activity Evaluation
A cell line in which human Nav1.7 and human Navβ1 subunits were stably expressed in HEK293A cells was used. Dulbecco's Modified Eagle Medium (DMEM) supplemeted with 10% fetal bovine serum, 600 μg/ml geneticin, and 2 μg/ml blasticidin S were used as culture medium under the conditions of 37° C. and 5% CO2 in T175 flasks to carry out culturing. When 60-80% confluence was reached, the cells were detached and a cell suspension of about 0.5-5.0×10^6 cells/mL was prepared. The amount of current through human Nav1.7 was recorded using a fully automatic patch clamp device QPatch16X (Sophion Biosciences) at room temperature. As the extracellular solution, the solution of 145 mM NaCl, 4 mM KCl, 1 mM MgCl2, 2 mM CaCl2, 10 mM Glucose, 10 mM 4-(2-hydroxyethyl)-1-piperazine ethanesulfonic acid (HEPES) at pH 7.4 was used. As the intracellular solution, the solution of 135 mM CsF, ⅕ mM glycol ether diaminetetraacetic acid (EGTA)/CsOH, 10 mM HEPES, 10 mM NaCl at pH 7.3 was used. The test compounds were dissolved in dimethyl sulfoxide (DMSO) and diluted with the extracellular solution to attain the DMSO concentration of 0.1% at the time of assay.
The current response was obtained at a sampling frequency of 25 kHz, and noise was removed with a 3 kHz low-pass filter. The holding potential was −100 mV. Correction of the leakage current was carried out by applying a step pulse of −120 mV before the test pulse. In order to investigate inhibitory action of the test compound, the following test pulse was given: Namely, after depolarizing pulse of −10 mV was applied for 50 milliseconds, it was fixed at −120 mV for 500 milliseconds; a potential at which about 30-40% of the channel was inactivated was maintained for 15 seconds, then fixed again at −120 mV for 100 milliseconds, and finally a −10 mV depolarization pulse was given for 50 milliseconds. Test pulses were given before and after the test compound addition.
The inhibitory activity of the test compound was determined based on the amount of inward current generated by the second depolarization pulse, and the 50% inhibitory concentration (IC50) was calculated from the concentration-response curve.
For orientation: IC50 means the concentration that gives 50% inhibition. In the case of `CC(C)CCC1Cn2cc(C(=O)N[C@H]3COc4ccccc4C3)nc2CN1C` (stereo partly drawn) [Example 50], the IC50 is less than 10 µM. On the same count and under the same terms, the value for `O=C(c1cn2c(n1)CCC(C1CCCCC1)C2)N1CCC1Cc1ccccc1` (stereo not drawn) [Example 31] was less than 1 µM. The same measure, in the same setting: under `O=C(N[C@H]1COc2ccc(Cl)cc2C1)c1cc2n(n1)CCC(COCC1CC1)O2` (stereo partly drawn) [Example 106] stands less than 1 µM; under `COc1cccc(-c2c(C(=O)N[C@H]3COc4ccccc4C3)nn3c2CCCC3)n1` [Example 69], less than 10 µM.

The same assay, now with this note: human Nav1.7, automated patch clamp.
Take `CCC1(O)CCn2nc(C(=O)N[C@H]3COc4ccc(C(F)(F)F)cc4C3)cc2OC1` (stereo partly drawn) [Example 582]: the IC50 is less than 10 µM. Still for that read-out and setting: the value for `O=C(N[C@H]1COc2ccc(Cl)cc2C1)c1nn2c(c1-c1ccccn1)COCC2` [Example 515] was less than 1 µM. `COC1c2cc(C(F)(F)F)ccc2OC[C@@H]1NC(=O)c1cc2n(n1)CCC(COCC(F)(F)F)O2` (single isomer, unassigned; isomer a) [598(isomer A)]: the half-inhibitory concentration (IC50) is less than 1 µM. In turn, `C=C1CCn2nc(C(=O)N[C@H]3COc4ccc(Cl)cc4C3)cc2O1` [Example 379] displayed an IC50 of less than 1 µM.

On to `O=C(N[C@H]1COc2ccc(CC(F)F)cc2C1)c1cc2n(n1)CC(CC1CCOCC1)O2` (stereo partly drawn) [Example 564], for which the IC50 was less than 10 µM. On the same count and under the same terms, under `O=C(N[C@H]1COc2ccc(COCC(F)(F)F)cc2C1)c1cc2n(n1)CCC(CN1CC(F)(F)C1)O2` (stereo partly drawn) [Example 440] stands less than 10 µM. On the same count and under the same terms, the value for `N#Cc1ccc2c(c1)C[C@@H](NC(=O)c1cc3n(n1)CC(CCC1CCOCC1)O3)CO2` (stereo partly drawn) [Example 623] was less than 1 µM; that for `N#Cc1ccc2c(c1)C(F)[C@@H](NC(=O)c1cc3n(n1)CCC(C(F)(F)F)CO3)CO2` (stereo partly drawn) [Example 649] was less than 10 µM.

With `N#Cc1ccc2c(c1)C[C@@H](NC(=O)c1cc3n(n1)CCC(OC(F)(F)F)CO3)CO2` (single isomer, unassigned) [253 (isomer B)], the half-maximal inhibitory concentration (IC50) was less than 10 µM. Regarding `O=C(N[C@H]1COc2ccc(COC3CCC3)cc2C1)c1cc2n(n1)CCC(C(F)(F)F)O2` (stereo partly drawn) [Example 399], the concentration for half-maximal inhibition (IC50) was less than 1 µM.

For the compound `O=C(N[C@H]1COc2ccc(Cl)cc2C1)c1cc2n(n1)CCC1(CCOCC1)O2` [Example 416], the IC50 is less than 10 µM. On the same count and under the same terms, under `O=C(N[C@H]1COc2ccc(CC(F)F)cc2C1)c1cc2n(n1)CC(CCOCC(F)F)O2` (stereo partly drawn) [Example 478] stands less than 1 µM; under `COc1ncc(-c2ccc3c(c2)C[C@@H](NC(=O)c2cc4n(n2)CCC(C(F)(F)F)O4)CO3)cn1` (stereo partly drawn) [Example 176], less than 10 µM.

`CC1(C)Cn2nc(C(=O)N[C@H]3COc4ccc(C(F)(F)F)cc4C3)c(-c3ccn[nH]3)c2O1` [Example 250] returned an IC50 of less than 10 µM. Same read-out and setting: under `O=C(N[C@H]1COc2ccc(C(F)(F)F)cc2C1O)c1cc2n(n1)CC(CCCOCC(F)(F)F)O2` (single isomer, unassigned) [603 (isomer A)] stands less than 1 µM; under `N#Cc1ccc2c(c1)C[C@@H](NC(=O)c1cc3n(n1)CCC(OC(F)(F)F)CO3)CO2` (single isomer, unassigned) [253 (isomer A)], less than 10 µM. Still for that read-out and setting: under `O=C(NC1COc2c(F)cc(F)cc2C1)c1cc2n(n1)CCC(c1ccccc1)O2` (stereo not drawn) [Example 354] stands less than 10 µM; under `N#Cc1ccc2c(c1)C[C@@H](NC(=O)c1cc3n(n1)C[C@H](CC1CCOCC1)O3)CO2` (single isomer, unassigned; isomer a) [577(isomer A)], less than 10 µM; under `N#Cc1ccc2c(c1)C[C@@H](NC(=O)c1cc3n(n1)CCC(C(O)C(F)(F)F)O3)CO2` (stereo partly drawn) [Example 417], less than 10 µM.

Turning to `Cc1cc(-c2c(C(=O)N[C@H]3COc4ccc(C(F)(F)F)cc4C3)nc3n2CCOC3)[nH]n1` [Example 512], the IC50 is less than 10 µM.

As for `O=C(N[C@H]1COc2ccc(C(F)(F)F)cc2C1)c1nn2c(c1-c1cccc(Cl)n1)COCC2` [Example 485], the IC50 is less than 1 µM. The same measure, in the same setting: under `CC(C)(c1ccccn1)N1CCn2nc(C(=O)N[C@H]3COc4ccc(C#N)cc4C3)cc2C1` [Example 501] stands less than 10 µM.

`O=C(N[C@H]1COc2ccc(C(F)(F)F)cc2C1O)c1cc2n(n1)CC(CSCC(F)(F)F)O2` (stereo partly drawn) [Example 587] registered an IC50 of less than 10 µM. `CC1(C)CN(CC2Cn3nc(C(=O)N[C@H]4COc5ccc(C(F)(F)F)cc5C4)cc3O2)CCO1` (stereo partly drawn) [Example 458] gave an IC50 of less than 1 µM. On the same count and under the same terms, under `O=C(N[C@H]1COc2ccc(C(F)(F)F)cc2C1O)c1cc2n(n1)CCC(COCC(F)(F)F)O2` (stereo partly drawn) [Example 561] stands less than 10 µM. Still for that read-out and setting: the value for `O=C(NC1COc2ccccc2C1)c1nn2c(c1-c1ccccc1)CCCC2` (stereo not drawn) [Example 347] was less than 10 µM. On the same count and under the same terms, the value for `O=C(N[C@H]1COc2ccc(CCOCC(F)(F)F)cc2C1)c1cc2n(n1)CCC(C(F)(F)F)O2` (stereo partly drawn) [Example 397] was less than 1 µM; that for `O=C(N[C@H]1COc2ccc(Cl)cc2C1)c1cc2n(n1)CC(COCC1CC1)O2` (stereo partly drawn) [Example 469] was less than 1 µM; that for `COC(C)(C)C#Cc1ccc2c(c1)C[C@@H](NC(=O)c1cc3n(n1)CCC(C(F)(F)F)O3)CO2` (stereo partly drawn) [Example 398] was less than 10 µM. With `O=C(N[C@H]1COc2cc(C(F)(F)F)nn2C1)c1cc2n(n1)CCC(c1ccccc1F)O2` (stereo partly drawn) [Example 537], the IC50 was less than 10 µM. Regarding `O=C(N[C@H]1COc2ccc(CC(F)F)cc2C1)c1cc2n(n1)CC(CCOC(F)(F)F)O2` (stereo partly drawn) [Example 210], the concentration for half-maximal inhibition (IC50) was less than 1 µM. On the same count and under the same terms, the value for `O=C(N[C@H]1COc2ccc(C(F)(F)F)cc2C1F)c1cc2n(n1)CCN(CC1CCOC1)C2` (stereo partly drawn) [Example 673] was less than 1 µM. `O=C(N[C@H]1COc2ccc(-c3cnccn3)cc2C1)c1cc2n(n1)CC(CCOCC1(C(F)(F)F)CC1)O2` (stereo partly drawn) [Example 467] showed an IC50 of less than 1 µM. The same measure, in the same setting: under `O=C(N[C@H]1COc2ccc(Cl)cc2C1)c1cc2n(n1)CC(C(F)(F)COCC1CC1)O2` (stereo partly drawn) [Example 449] stands less than 1 µM. The same measure, in the same setting: under `O=C(NC1COc2ccccc2C1)c1cc2n(n1)CCN(C(=O)CCc1ccccc1)C2` (stereo not drawn) [Example 510] stands less than 10 µM; under `O=C(N[C@H]1COc2ccc(C(F)(F)F)cc2C1F)c1cc2n(n1)CCC(C1CCOC1)O2` (stereo partly drawn) [Example 613], less than 1 µM. On the same count and under the same terms, the value for `O=C(N[C@H]1COc2ccc(Cl)cc2C1)c1cc2n(n1)CCC(COCCOCC(F)(F)F)O2` (stereo partly drawn) [Example 662] was less than 1 µM. As for `CCOC(F)C1CCn2nc(C(=O)N[C@H]3COc4ccc(Cl)cc4C3)cc2O1` (stereo partly drawn) [Example 409], the IC50 is less than 1 µM. Still for that read-out and setting: the value for `N#Cc1ccc2c(c1)C[C@@H](NC(=O)c1cc3n(n1)CCC(CCOC(F)F)O3)CO2` (single isomer, unassigned) [146 (isomer A)] was less than 10 µM; that for `O=C(N[C@H]1COc2ccccc2C1)c1cn2c(n1)CCC(c1cccc(C(F)(F)F)n1)C2` (stereo partly drawn) [Example 314] was less than 1 µM; that for `N#CC1(COCC2CCn3nc(C(=O)N[C@H]4COc5ccc(C(F)(F)F)cc5C4)cc3O2)CC1` (single isomer, unassigned) [554 (isomer B)] was less than 10 µM. On to `N#Cc1ccc2c(c1)C[C@@H](NC(=O)c1cc3n(n1)CCC(COC1CC(F)C1)O3)CO2` (stereo partly drawn) [Example 439], for which the IC50 is less than 10 µM. Compound `O=C(N[C@H]1COc2ccc(C(F)(F)F)cc2C1F)c1cc2n(n1)CCN(C1CCOCC1)C2` (stereo partly drawn) [Example 637] yielded an IC50 of less than 10 µM. As to `O=C(N[C@H]1COc2ccc(Cl)cc2C1)c1cc2n(n1)CCCC(c1ccccc1)O2` (stereo partly drawn) [Example 480], the IC50 was less than 10 µM.
